Consider three compounds from patent publication US20220105051A1, “COMPOUNDS FOR INCREASING MHC-I EXPRESSION AND MODULATING HISTONE DEACETYLASE ACTIVITY” (Cava Healthcare Inc., priority 2019, published 2022).

One data set has as its target T1, HDAC8 (Homo sapiens, UniProt Q9BY41).
T1 construct: purchased BPS Biosciences
T1 sequence (Q9BY41 1-377): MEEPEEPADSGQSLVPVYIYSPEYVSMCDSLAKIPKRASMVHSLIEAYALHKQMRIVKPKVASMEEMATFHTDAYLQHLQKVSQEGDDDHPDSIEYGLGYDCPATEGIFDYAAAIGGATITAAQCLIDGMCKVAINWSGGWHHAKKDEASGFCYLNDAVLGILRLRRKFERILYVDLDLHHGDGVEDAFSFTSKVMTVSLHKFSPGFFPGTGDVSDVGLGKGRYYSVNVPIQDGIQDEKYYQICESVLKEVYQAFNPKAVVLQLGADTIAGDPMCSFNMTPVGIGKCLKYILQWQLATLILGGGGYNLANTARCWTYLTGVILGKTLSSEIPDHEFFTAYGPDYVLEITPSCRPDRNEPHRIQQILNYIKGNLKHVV
Kind of data set: Individualized HDAC assay, HDAC8. The format is biochemical. The following applies: purified enzyme; for concentration at which HDAC8 inhibition was seen: 5 to 0.02 μM tested; for HDAC8 activity at higher concentrations: up to 5 μM. The procedure: (§1) The activity of the curcuphenol analogues was assessed with purified HDAC enzymes from all classes I, II, and IV, as well as a select member of HDAC class III (SIRT1). HDACs 1-9 and SIRT1 were evaluated using HDAC Fluorogenic Assay Kits (BPS Biosciences). All assays were completed in black-sided clear-bottom 96 well plates (PerkinElmer), and all treatments were plated in triplicates. Treatment started at 5 μM and was two-fold diluted to a concentration 0.02 μM. The assays were measured using the Synergy HI hybrid reader (BioTek) and Gen5 software (BioTek), excitation was set to 360 nm and detection was measured at 450 nm with a gain of 100. Alternatively HDAC 10 and 11 (BPS Biosciences) were optimized for HDAC concentration using the HDAC-Glo™ I/II Assay and Screening System (Promega). Following optimization each HDAC was run following the Promega protocol in black-sided clear-bottomed 96 well plates in triplicates with same treatments listed above (PerkinElmer). Luminescence was read 30 minutes after HDAC-Glo™I/II reagent was added using the Synergy HI hybrid reader (BioTek) and Gen5 software (Bio-Tek). […] To calculate percent activity, the average of blank wells was subtracted from all treatment groups. The relative mean of activity of the HDAC being measured was determined and all wells that received treatment were divided this average, to give a percentage of activity.
(§2) To evaluate the effect of the compounds on specific HDACs, their activity was assessed with purified HDAC enzymes from all classes I, II, and IV, as well as a select member of HDAC class III (SIRT1). HDACs 1-9 and SIRT1 were evaluated using HDAC Fluorogenic Assay Kits (BPS Biosciences) following the manufacturer's recommendations. Compound treatment started at 5 μM and was two-fold diluted to a concentration 0.02 μM. Alternatively, HDAC 10 and 11 assays (BPS Biosciences) were optimized to be used with the HDAC-Glo™ I/II Assay and Screening System (Promega). The assays were measured using the Synergy HI hybrid reader (BioTek) and Gen5 software (Bio-Tek). […] To calculate the fold change in HDAC activity, the values from each treated well were divided by the relative mean of activity of the specific HDAC being measured.

The target in a further data set is T2, HDAC10 (Homo sapiens, UniProt Q969S8).
T2 construct: purchased BPS Biosciences
T2 sequence (Q969S8 1-669): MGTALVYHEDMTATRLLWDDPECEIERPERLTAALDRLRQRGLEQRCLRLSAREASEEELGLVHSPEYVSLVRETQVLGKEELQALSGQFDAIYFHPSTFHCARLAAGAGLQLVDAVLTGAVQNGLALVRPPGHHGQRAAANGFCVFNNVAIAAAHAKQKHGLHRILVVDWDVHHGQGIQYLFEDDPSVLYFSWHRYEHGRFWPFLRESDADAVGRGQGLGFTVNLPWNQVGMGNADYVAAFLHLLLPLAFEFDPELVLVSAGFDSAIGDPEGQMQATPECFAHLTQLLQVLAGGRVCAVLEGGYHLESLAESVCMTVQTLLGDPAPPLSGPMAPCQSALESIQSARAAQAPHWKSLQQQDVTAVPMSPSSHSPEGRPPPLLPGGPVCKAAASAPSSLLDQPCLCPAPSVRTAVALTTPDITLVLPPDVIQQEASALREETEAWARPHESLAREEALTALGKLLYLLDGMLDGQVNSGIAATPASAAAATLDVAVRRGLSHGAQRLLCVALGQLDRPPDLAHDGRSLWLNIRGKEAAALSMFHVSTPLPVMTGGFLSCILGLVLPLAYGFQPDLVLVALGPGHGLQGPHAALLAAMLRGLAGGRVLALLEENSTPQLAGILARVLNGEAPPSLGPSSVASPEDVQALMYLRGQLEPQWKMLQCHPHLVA
Kind of data set: Individualized HDAC assay, HDAC10 (HDAC-Glo). The format is biochemical. The note with it: purified enzyme; for HDAC10 activity: 5 to 0.02 μM. The method, then: as §1, §2

For another data set, the target named is T3, HDAC5 (Homo sapiens, UniProt Q9UQL6).
T3 construct: purchased BPS Biosciences
Description: Individualized HDAC assay, HDAC5. The format is biochemical. The note with it: purified enzyme, 5 to 0.02 μM. The procedure: as §1, §2

The test system of another data set is A9 cell line. Kind of data set: Cytotoxicity / live cell frequency in A9 cells (flow cytometry, 7AAD). The format is cell-based, murine. The note with it: for cytotoxicity: 48 hours after treatment. The procedure:
A9 and TC-1 cell lines were trypsinized (0.05%, Gibco), washed twice with PBS (Gibco), and stained with allophycocyanin (APC) conjugated anti-mouse H-2K^b antibody (1:200, Biolegend) suspended in 150 μL of FACS buffer (PBS+2% FBS) for 20 minutes at 4° C. Cells were washed twice with PBS and re-suspended in 200 μL FACs buffer containing 1 μL of 7-aminoactinomycin (7AAD) viability stain (Biolegend). Flow cytometry was performed on the LSRII (BDBiosciences) and analysis was done using FlowJo (Flow cytometry Analysis Software).
The marine extract library was provided by Dr. Raymond J. Andersen (UBC). The marine invertebrate specimens were collected by SCUBA diving at a 40 metre depth from regions of high marine biodiversity in Papua New Guinea, Indonesia, Thailand, Sri Lanka, Dominica, Brazil, British Columbia, South Africa, and Norway 35. Previously curcuphenol was identified as the active component in one of the marine extracts showing induction of the APM, and since then two new generations of curcuphenol analogues were synthesized in the lab of Dr. Raymond Anderson. To evaluate the ability of these compounds to induce MHC-I surface expression, A9 cells were plated in 6 well plates at 10^5 cells/well and incubated for 24 hours at 37° C. in a 5% CO2 humidified atmosphere. After 24 hours the medium was removed and replaced with medium containing varying concentration of synthesized compounds (6.7 μg/mL, 20 μg/mL, 60 μg/mL). […] Following treatment, cells were incubated for 48 hours at 37° C. with 5% CO2 and humidified atmosphere. After incubation cells were subjected to flow cytometry.

Entries after “also recorded” stand apart in the source; their conditions may differ.

T3 sequence (Q9UQL6 whole entry): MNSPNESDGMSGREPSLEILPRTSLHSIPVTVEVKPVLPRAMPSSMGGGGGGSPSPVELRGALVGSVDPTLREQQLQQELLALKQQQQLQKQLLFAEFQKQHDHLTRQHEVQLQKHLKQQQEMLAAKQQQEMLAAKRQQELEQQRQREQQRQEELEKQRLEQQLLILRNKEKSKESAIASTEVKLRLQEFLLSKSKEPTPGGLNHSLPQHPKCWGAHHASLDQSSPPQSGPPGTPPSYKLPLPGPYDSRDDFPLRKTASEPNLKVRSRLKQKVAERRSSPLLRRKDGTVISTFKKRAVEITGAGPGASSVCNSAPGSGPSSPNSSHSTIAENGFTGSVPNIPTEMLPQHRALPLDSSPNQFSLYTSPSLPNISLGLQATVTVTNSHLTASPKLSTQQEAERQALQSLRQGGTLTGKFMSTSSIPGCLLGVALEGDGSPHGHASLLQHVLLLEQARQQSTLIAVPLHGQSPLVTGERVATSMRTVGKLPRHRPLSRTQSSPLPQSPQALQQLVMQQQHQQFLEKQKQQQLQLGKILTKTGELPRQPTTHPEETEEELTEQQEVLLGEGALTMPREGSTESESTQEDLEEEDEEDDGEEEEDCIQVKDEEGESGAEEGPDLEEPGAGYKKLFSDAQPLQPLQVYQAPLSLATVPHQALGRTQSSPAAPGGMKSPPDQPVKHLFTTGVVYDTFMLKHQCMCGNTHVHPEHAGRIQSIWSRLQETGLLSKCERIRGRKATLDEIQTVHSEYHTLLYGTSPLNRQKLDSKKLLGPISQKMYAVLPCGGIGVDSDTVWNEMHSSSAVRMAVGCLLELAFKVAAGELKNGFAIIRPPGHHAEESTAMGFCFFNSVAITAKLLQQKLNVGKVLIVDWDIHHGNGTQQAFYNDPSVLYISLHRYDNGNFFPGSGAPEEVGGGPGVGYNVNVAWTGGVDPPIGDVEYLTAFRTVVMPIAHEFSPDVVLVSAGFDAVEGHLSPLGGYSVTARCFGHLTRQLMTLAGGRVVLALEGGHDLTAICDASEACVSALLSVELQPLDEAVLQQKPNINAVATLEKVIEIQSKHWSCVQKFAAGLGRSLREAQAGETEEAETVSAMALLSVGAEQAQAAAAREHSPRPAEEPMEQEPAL

For the compound `CC(C)=CCC[C@H](C)c1ccc(C)cc1O` [Curcuphenol, curcuphenol], at HDAC8, the “effect on HDAC8 activity” value is “selectively inhibits”. Also, the HDAC10 activity entry on HDAC10 is “activates”. The HDAC5 activity entry on HDAC5 is reported as “activates”. In the data set with A9 cell line, the cytotoxicity result is recorded as “low cellular toxicity”. In addition, the live cell frequency result with A9 cell line (48 hours, 0.128 μmol) is “drops substantially”.

Turning to `CC(C)=CCCCc1ccc(C)cc1O` [P02-113], at HDAC8, the “effect on HDAC8 activity” value is recorded as “act as inhibitors to HDAC8; also recorded: slight inhibition at lower concentrations”, the “concentration at which HDAC8 inhibition was seen” value is ≤ 0.3 µM and the “HDAC8 activity at higher concentrations” value is “no change in HDAC8 activity”. Besides, at HDAC10, the “concentration range of HDAC10 enhancement” value is on record as “enhanced at all concentrations tested” and the HDAC10 activity entry is reported as “enhanced; also recorded: increase in activity levels”. For the same compound, at HDAC5, the HDAC5 activity result is on record as “enhanced; also recorded: increase in activity levels”. In the data set on A9 cell line, the cytotoxicity result is listed as “low cytotoxicity; also recorded: lowest cytotoxicity”.

Take `COc1ccc(C(C)CCC=C(C)C)c(O)c1` (stereo not drawn) [P03-97-1]: at HDAC8, the “effect on HDAC8 activity” value was “act as inhibitors to HDAC8; also recorded: slight inhibition at lower concentrations”, the “concentration at which HDAC8 inhibition was seen” value turned out to be 0.02 µM and the “HDAC8 activity at higher concentrations” value is “no change in activity”. Besides, at HDAC10, the “concentration range of HDAC10 enhancement” value is on record as “enhanced at all concentrations tested” and the HDAC10 activity entry was “enhanced; also recorded: increase in activity levels”. The HDAC10 activity entry at HDAC10 (listed as PO-3-97-1) is on record as “enhanced”. At HDAC5, the HDAC5 activity entry is “enhanced; also recorded: increase in activity levels”. Further, the HDAC5 activity result on HDAC5 (listed as PO-3-97-1) is “enhanced”. Further, in the data set on A9 cell line, the cytotoxicity entry is recorded as “low cytotoxicity; also recorded: lowest cytotoxicity”.
